Values after ≈ are worked out from the molar mass of the structure shown. Read-outs that look alike come from different tables or passages of the source.
How the values were obtained:
[1] = In vitro penetration across isolated human skin in modified Franz cells
Method: Penetration rates of HPPs and their parent drugs through human skin were measured in vitro by modified Franz cells. A Franz cell had two chambers, the top sample chamber and the bottom receiving chamber. The human skin tissue (360-400 μm thick) that separated the top and the receiving chambers was isolated from the anterior or posterior thigh areas.
A test compound (2 mL, 10% in 0.2 M phosphate buffer, pH 7.4) was added to the sample chamber of a Franz cell. The receiving chamber contained 10 ml of 0.2 M phosphate buffer which was stirred at 600 rpm. The amount of the tested compound penetrating the skin was determined by high-performance liquid chromatography (HPLC) method.

[2] = Conversion of HPPs to parent drugs in human plasma (half life); assay type: in vitro ADME; details: for half-life at 9.1 mg/mL: pH 7.4
Method: HPPs of antimicrobials or antimicrobial-related compounds converted to the parent antimicrobials or antimicrobial-related compounds quickly in good yield in human plasma.
A HPP of antimicrobial or antimicrobial-related compound (10 mg) was dissolved in 0.1 ml of 0.2M pH 7.4 phosphate buffer. 1 ml of human plasma, preheated to 37° C., was added into the mixture. The mixture was kept in a water bath at 37° C., and at every 2 min intervals 0.2 ml of samples were withdrawn and added to 0.4 ml of methanol to precipitate the plasma protein.

[3] = system: E. coli; assay: MIC against E. coli; details: Escherichia coli, read-out: MIC, E. coli
Method: (§1) Minimum inhibitory concentrations (MICs) of the antimicrobials and their pro-drugs were assessed according to Jennifer M. Andrews, Journal of Antimicrobial Chemotherapy 48, suppl.

[4] = system: E. faecalis; assay: MIC against E. faecalis; assay type: cell-based; details: Enterococcus faecalis; Table 6c
[5] = system: S. aureus; assay: MIC against S. aureus; details: Staphylococcus aureus, read-out: MIC, S. aureus
Method: as §1

[6] = system: methicillin-resistant Staphylococcus aureus (MRSA); assay: MIC against MRSA; assay type: cell-based; details: Table 6a
[7] = mouse, in vivo
Method: In vivo rates of penetration of HPPs of beta-lactam antibiotics through skin and blood-brain barrier of intact hairless mice were studied. […] After 2 hours, the mice were killed. 5 ml of methanol was added to 1 g of homogenized blood, liver, kidney, muscle, or brain. The samples were centrifuged for 5 min and analyzed by HPLC (Table 2).

[8] = Staphylococcus aureus, MRSA, read-out: MIC

CCN(CC)CCOC(=O)C1=C(CSc2nnnn2C)CSC2C(NC(=O)C(NC(=O)N3CCN(CC)C(=O)C3=O)c3ccc(OC(C)=O)cc3)C(=O)N12.Cl (stereo not drawn) [7-[[[[(4-ethyl-2,3-dioxo-1-piperazinyl)carbonyl]amino](4-acetoxyphenyl)acetyl]amino]-3-[[(1-methyl-1H-tetrazol-5-yl)thio]methyl]-8-oxo-5-thia-1-azabicyclo[4.2.0]oct-2-ene-2-carboxylic acid 2-diethylaminoethyl ester hydrochloride]
In vitro Penetration Rate (apparent flux), HPPs ([1]; human, 10 %, pH 7.4): 0.57 ± 0.04 mg/cm^2/h | half-life at 9.1 mg/mL ([2]; human, plasma): 12 min

CCN(CC)CCOC(=O)C1=C(Cl)CSC2C(NC(=O)C(NC(C)=O)c3ccccc3)C(=O)N12.Cl (stereo not drawn) [7-[(acetylaminophenylacetyl)amino]-3-chloro-8-oxo-5-thia-1-azabicyclo[4.2.0]oct-2-ene-2-carboxylic acid 2-diethylaminoethyl ester hydrochloride]
In vitro Penetration Rate (apparent flux), HPPs ([1]; human, 10 %, pH 7.4): 0.71 ± 0.05 mg/cm^2/h | half-life at 9.1 mg/mL ([2]; human, plasma): 8 min

Cc1noc(NS(=O)(=O)c2ccc(N)cc2)c1C [Sulfisoxazole]
MIC [3]: 16 µg/mL (≈ 59.9 µM) | MIC [4]: 55 µg/mL (≈ 206 µM) | MIC [5]: 64 µg/mL (≈ 239 µM)

CCN(CC)CCOC(=O)C1N2C(=O)C(NC(=O)[C@H](NC(=O)N3CCN(CC)C(=O)C3=O)c3ccccc3)C2SC1(C)C.Cl (stereo partly drawn) [6-D(−)-α-(4-ethyl-2,3-dioxo-1-piperazinylcarbonylamino)-α-phenylacetamidopenicillinic acid 2-diethylaminoethyl ester hydrochloride]
In vitro Penetration Rate (apparent flux), HPPs ([1]; pH 7.4): 0.74 ± 0.08 mg/cm^2/h | Half life of HPPs in plasma ([2]; human plasma, 37° C.): 15 ± 1 min

O=C(O)c1cn(C2CC2)c2cc(N3CCNCC3)c(F)cc2c1=O [Ciprofloxacin, 1-cyclopropyl-6-fluoro-4-oxo-7-piperazin-1-yl-quinoline-3-carboxylic acid]
MIC [3]: 10 µg/mL (≈ 30.2 µM) | MIC [4]: 2 µg/mL (≈ 6.04 µM) | MIC [5]: 128 µg/mL (≈ 386 µM)

CCN(CC)CCOC(=O)C1=C(CSc2nnnn2C)CSC2C(NC(=O)C(O)c3ccccc3)C(=O)N12.Cl (stereo not drawn) [7-[(hydroxyphenylacetyl)amino]-3-[[(1-methyl-1H-tetrazol-5-yl)thio]methyl]-8-oxo-5-thia-1-azabicyclo[4.2.0]oct-2-ene-2-carboxylic acid 2-diethylaminoethyl ester hydrochloride]
In vitro Penetration Rate (apparent flux), HPPs ([1]; human, 10 %, pH 7.4): 0.75 ± 0.05 mg/cm^2/h | half-life at 9.1 mg/mL ([2]; human, plasma): 10 min

COc1cccc(OC)c1C(=O)N[C@@H]1C(=O)N2[C@@H]1SC(C)(C)[C@@H]2C(=O)O [Methicillin, reference compound]
In vitro Penetration Rate (apparent flux), Parent compounds ([1]; human, 10 %, pH 7.4): <0.001 mg/cm^2/h | MIC [6, 8]: 2160 µg/mL (≈ 5670 µM)

CC1(C)SC2C(NC(=O)COc3ccccc3)C(=O)N2C1C(=O)OCCN1CCCCC1.Cl (stereo not drawn) [penicillin V-PEE, 6-phenoxyacetacetamidopenicillanic acid 1-piperidineethyl ester hydrochloride]
MIC [6]: 1 µg/mL

CCN(CC)CCOC(=O)C1=C(COC(C)=O)CSC2C(NC(=O)C(=NOC)c3csc(NC(C)=O)n3)C(=O)N12.Cl (stereo not drawn) [3-[(acetyloxy)methyl]-7-[[(2-acetylamino-4-thiazolyl)(methoxyimino)acetyl]amino]-8-oxo-5-thia-1-azabicyclo[4.2.0]oct-2-ene-2-carboxylic acid 2-diethylaminoethyl ester hydrochloride]
In vitro Penetration Rate (apparent flux), HPPs ([1]; human, 10 %, pH 7.4): 0.73 ± 0.06 mg/cm^2/h | half-life at 9.1 mg/mL ([2]; human, plasma): 10 min

3-[[(aminocarbonyl)oxy]methyl]-7-[[2-furanyl(methoxyimino)acetyl]amino]-8-oxo-5-thia-1-azabicyclo[4.2.0]oct-2-ene-2-carboxylic acid 2-diethylaminoethyl ester hydrochloride
In vitro Penetration Rate (apparent flux), HPPs ([1]; Table 1a, isolated human skin, Franz cells, 10% in 0.2 M phosphate buffer pH 7.4, n=5): 0.67 ± 0.04 mg/cm^2/h | Half life of HPPs in plasma ([2]; human plasma, 37° C.): 8 ± 1 min

C=CC1=C(C(=O)OCCN(CC)CC)N2C(=O)C(NC(=O)/C(=N\OCC(=O)OCC)c3csc(NC(C)=O)n3)C2SC1.Cl (stereo not drawn) [7-[2-(2-acetylamino-4-thiazolyl)-2-((Z)-ethoxycarbonylmethoxy)imino]acetamido]-3-(vinyl)-8-oxo-5-thia-1-azabicyclo[4.2.0]oct-2-ene-2-carboxylic acid 2-diethylaminoethyl ester hydrochloride]
In vitro Penetration Rate (apparent flux), HPPs ([1]; pH 7.4): 0.58 ± 0.05 mg/cm^2/h | Half life of HPPs in plasma ([2]; human plasma, 37° C.): 9 ± 1 min

penicillin V [reference compound]
MIC [6]: 3524 µg/mL

CCN(CC)CCOC(=O)C1=C(COC(C)=O)CSC2C(NC(=O)Cc3cccs3)C(=O)N12.Cl (stereo not drawn) [7-(2-thienylacetamido)cephalosporanic acid 2-diethylaminoethyl ester hydrochloride]
In vitro Penetration Rate (apparent flux), HPPs ([1]; pH 7.4): 0.62 ± 0.06 mg/cm^2/h | Half life of HPPs in plasma ([2]; human plasma, 37° C.): 9 ± 1 min

CCOC(=O)Cn1nnnc1SCC1=C(C(=O)OCCN(CC)CC)N2C(=O)C(NC(=O)Cc3ccccc3CNC(C)=O)C2SC1.Cl (stereo not drawn) [7-[[[2-(acetylaminomethyl)phenyl]acetyl]amino]-3-[[[1-(ethoxylcarbonylmethyl)-1H-tetrazol-5-yl]thio]methyl]-8-oxo-5-thia-1-azabicyclo[4.2.0]oct-2-ene-2-carboxylic acid 2-diethylaminoethyl ester hydrochloride]
In vitro Penetration Rate (apparent flux), HPPs ([1]; human, 10 %, pH 7.4): 0.52 ± 0.04 mg/cm^2/h | half-life at 9.1 mg/mL ([2]; human, plasma): 9 min

CCN(CC)CCOC(=O)C1N2C(=O)C(NC(=O)C3C(c4ccccc4)=NOC3C)C2SC1(C)C.Cl (stereo not drawn) [6-(5-methyl-3-phenyl-2-isoxazoline-4-carboxamido)penicillinic acid 2-diethylaminoethyl ester hydrochloride]
Half life of HPPs in plasma ([2]; human, plasma): 12 ± 1 min | Amount of parent drug found in Blood [7]: 28 ± 5 µg/g | Amount of parent drug found in Brain [7]: 8 ± 6 µg/g | Amount of parent drug found in Kidney [7]: 16 ± 5 µg/g | Amount of parent drug found in Liver [7]: 18 ± 7 µg/g | Amount of parent drug found in Muscel [7]: 22 ± 5 µg/g

CCN(CC)CCOC(=O)C1N2C(=O)C(NC(=O)c3c(-c4ccccc4Cl)noc3C)C2SC1(C)C.Cl (stereo not drawn) [6-[3-(o-chlorophenyl)-5-methyl-4-isoxazolecarboxamido]penicillinic acid 2-diethylaminoethyl ester hydrochloride]
Half life of HPPs in plasma ([2]; human, plasma): 8 ± 1 min | Amount of parent drug found in Blood [7]: 25 ± 8 µg/g | Amount of parent drug found in Brain [7]: 9 ± 5 µg/g | Amount of parent drug found in Kidney [7]: 12 ± 7 µg/g | Amount of parent drug found in Liver [7]: 14 ± 6 µg/g | Amount of parent drug found in Muscel [7]: 20 ± 7 µg/g

Cc1onc(-c2ccccc2)c1C(=O)N[C@@H]1C(=O)N2[C@@H]1SC(C)(C)[C@@H]2C(=O)O [Oxacillin, reference compound]
In vitro Penetration Rate (apparent flux), Parent compounds ([1]; human, 10 %, pH 7.4): <0.001 mg/cm^2/h | drug detected in blood, liver, kidney, muscle or brain of mice treated with only the parent drug [7]: No drug was detected

CCN(CC)CCOC(=O)C1=C(COC(N)=O)CSC2N1C(=O)C2(NC(=O)Cc1cccs1)OC.Cl (stereo not drawn) [3-[[(aminocarbonyl)oxy]methyl]-7-methoxy-8-oxo-7-[(2-thienylacetyl)amino]-5-thia-1-azabicyclo[4.2.0]oct-2-ene-2-carboxylic acid 2-diethylaminoethyl ester hydrochloride]
In vitro Penetration Rate (apparent flux), HPPs ([1]; human, 10 %, pH 7.4): 0.61 ± 0.05 mg/cm^2/h | half-life at 9.1 mg/mL ([2]; human, plasma): 7 min

CO/N=C(\C(=O)N[C@@H]1C(=O)N2C(C(=O)O)=CCS[C@H]12)c1csc(N)n1 [Ceftizoxime, reference compound]
In vitro Penetration Rate (apparent flux), Parent compounds ([1]; human, 10 %, pH 7.4): <0.010 mg/cm^2/h | MIC [6, 8]: 2790 µg/mL (≈ 7270 µM)

COc1cccc(OC)c1C(=O)NC1C(=O)N2C1SC(C)(C)C2C(=O)OCC1CCCN1.Cl (stereo not drawn) [methicillin-PME, 6-(2,6-dimethoxybenzamido)penicillinic acid 2-pyrrolidinemethyl ester hydrochloride]
MIC [6]: 10 µg/mL

CCN(CC)CCOC(=O)C1N2C(=O)C(NC(=O)[C@H](NC(=O)N3CCNC3=O)c3ccccc3)C2SC1(C)C.Cl (stereo partly drawn) [D-α-[(imidazolidin-2-on-1-yl)carbonylamino]benzylpenicillin 2-diethylaminoethyl ester hydrochloride]
Half life of HPPs in plasma ([2]; human, plasma): 9 ± 1 min

CCN(CC)CCOC(=O)C1N2C(=O)C(NC(=O)c3c(-c4c(Cl)cccc4Cl)noc3C)C2SC1(C)C.Cl (stereo not drawn) [6-[3-(2,6-dichlorophenyl)-5-methyl-4-isoxazolecarboxamido]penicillinic acid 2-diethylaminoethyl ester hydrochloride]
Half life of HPPs in plasma ([2]; human, plasma): 12 ± 1 min

CCN(CC)CCOC(=O)C1=C(COC)CSC2C(NC(=O)/C(=N\OC)c3csc(NC(C)=O)n3)C(=O)N12.Cl (stereo not drawn) [7-[2-(2-acetylamino-4-thiazolyl)-2-((Z)-methoxyimino)acetamido]-3-(methoxymethyl)-8-oxo-5-thia-1-azabicyclo[4.2.0]oct-2-ene-2-carboxylic acid 2-diethylaminoethyl ester hydrochloride]
In vitro Penetration Rate (apparent flux), HPPs ([1]; human, 10 %, pH 7.4): 0.51 ± 0.03 mg/cm^2/h | half-life at 9.1 mg/mL ([2]; human, plasma): 8 min
